Experimental data taken from US6331555A, “Treatment of platelet derived growth factor related disorders such as cancers” (priority 1999, dated 2001).
Converted amounts (≈) assume the structure as drawn.

Legend:
physchem = experiment: physchem
Source text: PBTE consists of a solution of 3% w/v benzyl alcohol, 8% w/v polysorbate 80, and 65% w/v polyethylene glycol (MW=300 daltons) in absolute ethanol. PBTE:D5W consists of PBTE diluted 1:1 in a solution of 5% dextrose in water. […] The solubility of the other compounds described herein can be obtained using standard techniques.

[1] = LD50 of A10 in BALB/c mice; conditions: mouse, in vivo, ip
Protocol: All animals wee observed for 7 to 14 days after the last dose was administered. The LD50 was calculated from a plot of % mortality versus dose (log M) using a four parameter logistic equation.

spleen cells = experiment: Normal immune function in rats bearing a primary tumor; format: in vivo, rat; set-up: key to 3H-thymidine uptake: 0: no change; +/-: decrease in some drug-treated animals to levels detected in normal (non-tumor-bearing, non-drug-treated) animals; conditions: 8.4 mg/kg/day
Source text: At the indicated times, animals were sacrificed, and the spleens were aseptically removed and placed into sterile medium. Spleens were processed into single cell suspensions by grinding between sterile frosted glass microscope slides. After a single wash to remove tissue debris, the spleen cells were resuspended in a hypotonic ammonium chloride buffer to lyse erythrocytes. Lymphocytes were washed and resuspended to the appropriate concentrations in complete medium, consisting of RPMI plus 10% heat-inactivated FBS, 2 mM glutamine, 50 μM β-mercaptoethanol, and penicillin-streptomycin. The responses of the lymphocytes were examined in the following assays according to accepted procedures (Current Protocols in Immunology. Coligan, J. E., Kruisbeek, A. M., Margulies, D. H., Shevach, E. M., Strober, W. (eds.) John Wiley and Sons, Inc., 1992).
The T-cell mitogen, ConA, and the T-cell independent B-cell mitogen, LPS, were added to 96-well round-bottom wells at the indicated concentrations. Lymphocytes from normal, vehicle-dosed, and drug-dosed animals were added at a final concentration of 2.5×10^5 /well. Cultures were usually set up in triplicate or quadruplicate. The plates were incubated at 37° C. in a humidified atmosphere containing 5% CO2 for the indicated times. Supernatants (approximately 100 μL) were carefully removed from the wells and stored at -80° C. for lymphokine and immunoglobulin analyses. To measure proliferation of the lymphocytes, 1 μCi of ^3 H-thymidine was added to each well, and the plates were incubated for 6 hr. The cultures were harvested onto glass fiber filters, and the incorporated radioactivity was quantitated by liquid scintillation counting (Betaplate, Wallac).
Lymphocytes from normal, vehicle-dosed, and drug-dosed animals were plated at 2.5×10^5 /well in round-bottom 96-well plates. Stimulator cells were then added at the same cell concentration. The stimulator cells consisted of syngeneic or allogeneic lymphocytes which had been treated with 50 μg/mL of mitomycin C for 30 min prior to the assay. The plates were incubated for 3 to 4 days, at which time supernatants were harvested and the cultures were pulsed as described for the mitogen assays.
Supernatants from mitogen and MLR cultures were assayed for IL-2 and IL-6 content by the ability to support the growth of factor-dependent cell lines. HT-2 cells (10^4 /well, IL-2-dependent) and 7TD1 cells (2×10^3 /well, IL-6-dependent) were plated in 96-well flat-bottom plates, in 50 μL/well. Supernatants were added in 50 μL/well, and the plates were incubated overnight (HT-2) or four days (7TD1). Cellular proliferation was determined in the MTT colorimetric assay (Appendix 3.1).
Wistar rats received SC implants of C6 cells on day 0. […] The control group was not treated after tumor implantation. On day 21, the animals were sacrificed and the spleens were removed for in vitro analyses. Splenocytes were stimulated with ConA, LPS, and alloantigen (DA rat spleen cells) as in the murine studies.

C6 cells = experiment: Intracerebral C6 tumor, athymic rats, survival; format: in vivo, rat; conditions: IC C6, athymic rats
Protocol: FIG. 5. In two separate experiments, C6 cells (5×10^4 cells in 20 μL [Expt #1] or 5 μL [Expt #2]) were implanted into the cerebrum of athymic rats. […] V=vehicle control. n=7 to 8 animals per group. * P=0.0002; ** P=0.0003 compared to vehicle control.
For the rat IC model, rats (Wistar, Sprague Dawley, Fisher 344, or athymic R/Nu; approximately 200 g) were anesthetized by an IP injection of 100 mg/kg Ketaset (ketamine hydrochloride; Aveco, Fort Dodge, Iowa) and 5 mg/kg Rompun (xylazine, 2% solution; Bayer, Germany). After onset of anesthesia, the scalp was shaved and the animal was oriented in a stereotaxic apparatus (Stoelting, Wood Dale, Ill.). The skin at the incision site was cleaned 3 times with alternating swabs of 70% ethanol and 10% Povidone-Iodine. A median 1.0-1.5 cm incision was made in the scalp using a sterile surgical blade. The skin was detached slightly and pulled to the sides to expose the sutures on the skull surface. A dental drill (Stoelting, Wood Dale, Ill.) was used to make a small (1-2 mm diameter) burrhole in the skull approximately 1 mm anterior and 2 mm lateral to the bregma. The cell suspension was drawn into a 50 μL Hamilton syringe fitted with a 23 or 25 ga standard bevel needle. […]

[2] = tested on: 7TD1 (B-cell hybridoma) cells; experiment: Survival, IP 7TD1 B-cell hybridoma in C57BL/6 mice; format: in vivo, mouse
Protocol: Cell lines were grown in the appropriate media as described in Appendix 1. Cells were harvested and washed in sterile PBS or medium without FBS, resuspended to a suitable concentration, and injected into the IP cavity of […] of the appropriate strain. Prior to implantation of 7TD1 cells, C57BL/6 mice were primed by IP injection of 0.5 mL Pristane. SKOV3T cells were implanted into athymic mice without Pristane priming. Mice were observed daily for the occurrence of ascites formation. Individual animals were sacrificed when they presented with a weight gain of 40%, or when the IP tumor burden began to cause undue stress and pain to the animal.
All animals in the control group died by day 9, while 3 of 8 animals in the A10-treated group survived past day 80.

in vivo = conditions: mouse, ip
Protocol: The LD50 was calculated from a plot of % mortality versus dose (log M) using a four parameter logistic equation.

With `Cc1oncc1C(=O)Nc1ccc(C(F)(F)F)cc1` [Compound A10, 5-methylisoxazole-4 carboxylic acid-(4-trifluromethyl)-anilide] the solubility (physchem; pbte, organic solvent or mixture) was about 60 mg/mL (≈ 222 mM), the solubility (physchem; pbte:d5w) was about 5 mg/mL (≈ 18.5 mM) and the solubility in water (physchem; water) was “not very soluble in water”. For the same compound, the LD50 [1] was 94 mg/kg, the “syngeneic MLR proliferative response” value (spleen cells) was “reduced in one of four A10-treated tumor-bearing animals” and the 3H-thymidine uptake (spleen cells; Allo) was 0. The IL-2 production (spleen cells; Allo) was 0, the IL-6 production (spleen cells; Allo) was 0 and the 3H-thymidine uptake (spleen cells; ConA) was 0. It also gave an IL-2 production (spleen cells; ConA) of 0, an IL-6 production (spleen cells; ConA) of 0 and a 3H-thymidine uptake (spleen cells; LPS) of 0. For the same compound, the IL-2 production (spleen cells; LPS) was 0, the IL-6 production (spleen cells; LPS) was 0 and the 3H-thymidine uptake (spleen cells; Syn) was “+/-”. The IL-2 production (spleen cells; Syn) was 0, the IL-6 production (spleen cells; Syn) was 0 and the 3H-thymidine uptake (spleen cells; Tumor stimulus) was 0. The IL-2 production (spleen cells; Tumor stimulus) was 0, the IL-6 production (spleen cells; Tumor stimulus) was 0 and the survival (C6 cells) was “slight but significant positive effect on the survival”. For the same compound, the “survival” value ([2]; 15 mg/kg/day IP in DMSO) was “significantly increase the survival”, the animals surviving ([2]; 15 mg/kg/day IP in DMSO 30 days, past day 80) was 3 of 8 and the LD50 (in vivo) was 145 mg/kg.
